# From patent publication US6420367B1, “Pyrimidine derivatives exhibiting antitumor activity” (Shionogo & Co., Ltd., priority 1998, dated 2002)
# Key:
# human colon cancer HT29 = experiment: In vitro cell growth inhibition test, MTT assay; type: cell-based; details: MTT assay 4 days after compound addition
# How it was run: (§1)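 MTT read-out; human cancer cell panel (lung squamous, lung adeno, colon, plus pancreas PANC-1).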
# [1] = test system: human lung adenocarcinoma A549; experiment: In vitro cell growth inhibition test, MTT assay; type: cell-based; details: MTT assay 4 days after compound addition
# How it was run: as §1
# [2] = test system: human pancreas cancer PANC-1; experiment: In vitro cell growth inhibition test, MTT assay; type: cell-based; details: MTT assay 4 days after compound addition
# How it was run: as §1
# [3] = test system: human squamous lung cancer Ma44; experiment: In vitro cell growth inhibition test, MTT assay; type: cell-based; details: MTT assay 4 days after compound addition
# How it was run: as §1
# [4] = test system: human squamous lung cancer RERF-RC-AI; experiment: In vitro cell growth inhibition test, MTT assay; type: cell-based; details: MTT assay 4 days after compound addition
# How it was run: as §1
# [5] = test system: DT-R cells (pRRE3-luc-transfected v-ki-ras-transformed NIH3T3 cells); signal derived from Ras oncogene products; experiment: Inhibitory effect against cellular signaling derived from Ras oncogene products: luciferase reporter, dissociation of DT-R from DT-C activity (MAC); type: cell-based, mouse; details: minimal tested concentration at which luciferase activities of DT-C cells and DT-R cells dissociated
# How it was run: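 Value is a minimal active concentration: lowest dose where Ras-responsive reporter (DT-R) luciferase diverges from SV40-minimal-promoter control (DT-C). Both transfected v-Ki-ras NIH3T3 lines received 3-fold serial dilutions for 24 h at 37 °C in 10% FCS medium before lysis and luminometry.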
# [6] = test system: DT-C cells (pGV-P-transfected v-ki-ras-transformed NIH3T3 cells); experiment: Luciferase activity in control DT-C cells (IC50-C): non-specific transcription-inhibitory effect or cytotoxicity; type: cell-based, mouse; details: tested concentration nearest to 50% inhibition in DT-C cells; index of non-specific transcription inhibition or cytotoxicity
# Text: Test Example 1 Inhibitory Effect Against Cellular Signaling Derived From Ras Oncogene Products
# 1) Establishment of Cell Lines Used in Assay
# Based on the reporter plasmid (pGV-P (Toyo Ink, Japan)), in which luciferase gene was ligated to SV40-derived minimal promoter, we constructed a plasmid designated pRRE3-luc by inserting 3 copies of chemically synthesized oligonucleotides (Sequence: CAGGATATGACTCT, derived from mouse NVL-3 (M. A. Reddy et al.(1992)Mol. Endocrinol., 6, 1051)) into upstream of the promoter. v-ki-ras-transformed NIH3T3 cells (DT cells, provided by Dr. Makoto Noda (Kyoto Univ., School of medicine)) were transfected with this plasmid by liposome-mediated transfection and transfected cell lines stably incorporated and maintained each plasmid were obtained. We named pGV-P and pRRE3-transfected cell line as DT-C and DT-R, respectively and used in the assay described below.
# 2) Preparation of Samples
# i) All the cell lines were cultured in Dulbecco's Modified Essential Medium (DMEM: 10% Fetal Calf Serum(FCS: Hyclone, USA)) including […] kanamycin (Meiji Seika, Japan) in humidified incubator under condition of 5% CO2 at 37° C.
# ii) DT-C and DT-R cells were seeded at 2500 cells/well into flat-bottom 96 well multiplate (Sumitomo bakelite) and incubated for 24 hours.
# iii) Test compounds were prepared as 1 mg/ml DMSO solution.
# iv) The solution of test compounds were added to the culture. Tested compounds are used at the concentration from […] to 0.51 ng/ml with by 3-fold dilution.
# v) After 24 hours, the culture supernatant was completely aspirated and […] of cell-lysing solution (PGC-50 (Toyo Ink, Japan)) was added before cells were dried up. In order to the cells were lysed completely, multiwell plates were left at room temperature for 10 to 30 min. The plates were wrapped up and stored at −20° C. till the day of measurement.
# 3) Measurement of Samples
# i) Melt the samples by putting 96 well multiplate at 37° C. and add 90 μl/well 25 mM Tris (pH 7.5).
# ii) Transfer 50 μl of the sample (110 μl) to the 96 well microplate for measurement (Microlite 1 (Dynatech)).
# iii) Measure the samples by the luminometer, LUMINOUS CT9000D (Dia-Yatron, Japan). We used Pickagene luminescence kit PGL2000 or LT2.0 (Toyo Ink, Japan) as substrates for luminescence measurement (50 μl/well).
# 4) Judgment of the Results
# i) The luciferase activity of DT-C cells and DT-R cells were plotted in the graph where the relative activity and the compound concentration were expressed as Y-axis and X-axis, respectively. We judged by the degree of dissociation between the activities of DT-C cells and DT-R cells as an index.
# ii) Concretely, efficacy of the compound was expressed by two values described below.
# b) Among the points of concentration tested, the concentration which is the nearest to 50% inhibition concentration at DT-C cells (IC50-C), was shown as an index of non-specific transcription-inhibitory effect or of cytotoxicity. In case of positive compounds, 50% inhibition concentration above the area of active concentration in DT-C cells was expressed as IC50-C.
Structure (SMILES),"IC50, HT29 (human colon cancer HT29)","IC50, A549 [1]","IC50, PANC-1 [2]","IC50, Ma44 [3]","IC50, RERF-LC-AI [4]",MAC (Minimal Active Concentration) [5],IC50-C [6]
CCCNC(=Nc1nc(C)ncc1CSc1nnc(-c2ccc([N+](=O)[O-])cc2)o1)NC [Compound A-146],0.014 µg/mL,0.18 µg/mL,0.024 µg/mL,0.052 µg/mL,0.011 µg/mL,0.0137 µg/mL,>10 µg/mL
CCNC(=Nc1nc(CC)ncc1CSc1nnc(-c2ccc(N)cc2)o1)NCC [Compound A-154],0.012 µg/mL,,0.018 µg/mL,0.04 µg/mL,0.008 µg/mL,0.0412 µg/mL,>10 µg/mL
CCCNC(=Nc1ncncc1CSc1nnc(-c2ccc([N+](=O)[O-])cc2)o1)NCCC [Compound A-155],0.08 µg/mL,,0.009 µg/mL,0.009 µg/mL,0.006 µg/mL,0.00457 µg/mL,3.33 µg/mL
CCCNC(=Nc1nc(C)ncc1CSc1nnc(-c2ccc([N+](=O)[O-])cc2)o1)NCCC [Compound A-127],0.018 µg/mL,0.028 µg/mL,0.017 µg/mL,0.017 µg/mL,0.015 µg/mL,0.0137 µg/mL,3.33 µg/mL
CCNC(=Nc1ncncc1CSc1nnc(-c2ccc([N+](=O)[O-])cc2)o1)NC(C)C [Compound A-121],0.02 µg/mL,0.058 µg/mL,0.02 µg/mL,0.02 µg/mL,0.02 µg/mL,<0.000508 µg/mL,>10 µg/mL
CCNC(=Nc1nc(C(C)C)ncc1CSc1nnc(-c2ccc([N+](=O)[O-])cc2)o1)NCC [Compound A-130],0.029 µg/mL,0.074 µg/mL,0.018 µg/mL,0.039 µg/mL,0.023 µg/mL,0.123 µg/mL,3.33 µg/mL
CCNC(=Nc1ncncc1CSc1nnc(-c2ccc(CN)cc2)o1)NCC [Compound A-119],0.1 µg/mL,1.2 µg/mL,0.068 µg/mL,0.2 µg/mL,0.023 µg/mL,0.37 µg/mL,>10 µg/mL
CCNC(=Nc1nc(C)ncc1CSc1nnc(-c2ccc(OC)cc2)o1)NCC [Compound A-73],0.016 µg/mL,0.052 µg/mL,0.029 µg/mL,0.048 µg/mL,0.012 µg/mL,0.123 µg/mL,>10 µg/mL
CCNC(=Nc1nc(C)ncc1CSc1nnc(-c2ccsc2N)o1)NCC [Compound D-8],0.03 µg/mL,0.027 µg/mL,0.013 µg/mL,0.036 µg/mL,0.012 µg/mL,0.0412 µg/mL,>10 µg/mL
CCNC(=Nc1ncncc1CSc1nnc(-c2ccncc2)o1)NCC [Compound D-41],0.04 µg/mL,0.07 µg/mL,0.049 µg/mL,0.055 µg/mL,0.024 µg/mL,1.11 µg/mL,>10 µg/mL
CCCCNC(=Nc1nc(C)ncc1CSc1nnc(-c2ccc([N+](=O)[O-])cc2)o1)NCC [Compound A-136],0.011 µg/mL,0.031 µg/mL,0.016 µg/mL,0.016 µg/mL,0.012 µg/mL,0.0137 µg/mL,3.33 µg/mL
CCCNC(N)=Nc1nc(C)ncc1CSc1nnc(-c2ccc([N+](=O)[O-])cc2)o1 [Compound A-158],0.025 µg/mL,,0.03 µg/mL,0.032 µg/mL,0.007 µg/mL,0.0412 µg/mL,>10 µg/mL
CCCNC(=Nc1nc(C)ncc1CSc1nnc(-c2ccccc2N)o1)NCC [Compound A-36],0.015 µg/mL,,0.014 µg/mL,0.026 µg/mL,0.0072 µg/mL,0.0412 µg/mL,3.33 µg/mL
CCNC(=Nc1nc(CC)ncc1CSc1nnc(-c2ccccc2N)o1)NCC [Compound A-37],0.03 µg/mL,,0.025 µg/mL,0.24 µg/mL,0.021 µg/mL,0.0412 µg/mL,3.33 µg/mL
CCCNC(N)=Nc1nc(C)ncc1CSc1nnc(-c2ccc(N)cc2)o1 [Compound A-157],0.008 µg/mL,,0.015 µg/mL,0.044 µg/mL,0.005 µg/mL,0.0137 µg/mL,>10 µg/mL
CCNC(=Nc1nc(C)ncc1CSc1nnc(-c2ccc(Br)cc2)o1)NCC [Compound A-108],0.022 µg/mL,0.027 µg/mL,0.027 µg/mL,0.029 µg/mL,,0.123 µg/mL,>10 µg/mL
CCNC(=Nc1nc(C)ncc1CSc1nnc(-c2ccc(C(F)(F)F)cc2)o1)NCC [Compound A-106],0.043 µg/mL,0.082 µg/mL,0.056 µg/mL,0.086 µg/mL,,0.370 µg/mL,>10 µg/mL
